According to patent publication US4532255A, “Amidine compounds and anticomplement agent comprising same” (Torii & Co., Ltd., priority 1980, dated 1985):
Several values for one entry are separate records, joined by “and”; a condition that tells them apart may be missing. Equal entries are not always repeated.

How the values were obtained:
[1] = target: T1, Plasmin (Homo sapiens, UniProt P00747); assay: Anti-plasmin activity (hydrolysis of TAME); assay type: biochemical; conditions: molar concentration inhibiting 50% of TAME hydrolysis; read-out: Plasmin ID50
T1 sequence (P00747 581-810 limits assumed, species assumed): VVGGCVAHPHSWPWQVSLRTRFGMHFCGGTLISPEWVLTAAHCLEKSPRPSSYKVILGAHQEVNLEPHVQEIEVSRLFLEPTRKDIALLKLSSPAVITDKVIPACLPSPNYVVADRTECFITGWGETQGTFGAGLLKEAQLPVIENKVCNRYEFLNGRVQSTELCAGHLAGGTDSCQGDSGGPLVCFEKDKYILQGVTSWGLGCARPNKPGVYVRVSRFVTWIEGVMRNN
T1 sequence (P00747 97-580 partner limits assumed, species assumed): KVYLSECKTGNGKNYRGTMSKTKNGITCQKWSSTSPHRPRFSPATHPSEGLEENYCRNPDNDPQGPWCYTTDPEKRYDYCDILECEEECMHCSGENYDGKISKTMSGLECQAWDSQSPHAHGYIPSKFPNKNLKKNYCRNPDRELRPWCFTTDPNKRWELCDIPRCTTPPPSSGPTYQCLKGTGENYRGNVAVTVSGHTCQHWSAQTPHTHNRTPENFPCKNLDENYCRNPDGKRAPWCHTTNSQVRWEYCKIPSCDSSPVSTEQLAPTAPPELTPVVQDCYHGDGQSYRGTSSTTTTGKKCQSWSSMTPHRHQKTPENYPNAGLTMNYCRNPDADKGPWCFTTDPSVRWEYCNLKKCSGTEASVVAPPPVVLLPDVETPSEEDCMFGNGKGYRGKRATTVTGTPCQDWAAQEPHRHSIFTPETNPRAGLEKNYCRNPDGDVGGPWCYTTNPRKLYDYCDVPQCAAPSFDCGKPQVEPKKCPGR
Experimental: (§1) The anti-trypsin, anti-plasmin, anti-kallikrein and anti-thrombin activities were determined according to the method of Muramatsu et al. [M. Muramatsu, T. Onishi, S. Makino, Y. Hayashi and S. Fujii, J. of Biochem., 58, 214 (1965)]. […] The compound No. corresponds to the compound number shown in Examples.

[2] = target: T2, Trypsin (Bos taurus, UniProt P00760); assay: Anti-trypsin activity (hydrolysis of TAME); assay type: biochemical; conditions: molar concentration inhibiting 50% of TAME hydrolysis; read-out: Trypsin ID50
T2 sequence (P00760 24-246): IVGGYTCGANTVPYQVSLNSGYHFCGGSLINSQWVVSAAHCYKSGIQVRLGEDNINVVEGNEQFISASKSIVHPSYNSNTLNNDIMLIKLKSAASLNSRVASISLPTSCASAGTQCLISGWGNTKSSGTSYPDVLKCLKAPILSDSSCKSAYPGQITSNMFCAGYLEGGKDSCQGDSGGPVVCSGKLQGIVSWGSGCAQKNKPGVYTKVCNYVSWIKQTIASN
Experimental: as §1

[3] = tested on: Kallikrein; assay: Anti-kallikrein activity (hydrolysis of TAME); assay type: biochemical; conditions: molar concentration inhibiting 50% of TAME hydrolysis; read-out: Kallikrein ID50
Experimental: The anti-trypsin, anti-plasmin, anti-kallikrein and anti-thrombin activities were determined according to the method of Muramatsu et al. [M. Muramatsu, T. Onishi, S. Makino, Y. Hayashi and S. Fujii, J. of Biochem., 58, 214 (1965)]. The data summarized in Table 1 are expressed in terms of molar concentration (ID50) of the test compound which inhibits 50% of the activity of each enzyme to hydrolyze TAME (tosylalginine methyl ester). The compound No. corresponds to the compound number shown in Examples.

[4] = target: T1, Plasmin; conditions: G. Wagner et al., Pharmazie 1977; cited from earlier work
[5] = target: T2, Trypsin; conditions: G. Wagner et al., Pharmazie 1977; cited from earlier work
[6] = target: T3, Thrombin (Homo sapiens, UniProt P00734); assay: biochemical; conditions: for IC50: molar concentration inhibiting 50% of TAME hydrolysis, read-out: Thrombin ID50; for inhibition at 10 µM: at 1×10^-5 M, read-out: Thrombin percentage inhibition
[7] = target: T3, Thrombin; conditions: G. Wagner et al., Pharmazie 1977; cited from earlier work
[8] = tested on: Forssman shock; assay: Forssman shock (survival time after hemolysin); assay type: in vivo, Male Hartlay guinea pig; conditions: 5 minutes before hemolysin
Source text: Quite different from other animals, guinea pig has on the surface of its organs a specific antigen called Forssman antigen which specifically reacts with the antibody of sheep erythrocyte. Forssman shock is based on the above principle and is a shock caused by the administration of antibody of sheep erythrocyte to a guinea pig. The Forssman shock was investigated in detail by many researchers and it was definitely shown that this shock is a model case where the complement plays the principal part and that the shock is associated with a classical pathway in which the complement system is activated progressively starting from C1. Since the participation of complement in autoimmune diseases has been established, the Forssman shock can be said to be a useful means for testing a drug for autoimmune diseases. A drug effective for the treatment of Forssman shock is useful as a drug of autoimmune diseases. [Anti-trypsin, anti-plasmin, anti-kallikrein and anti-thrombin activities]
The experiment was performed according to the method of I. G. Offerness et al. [Biochem. Pharmacol., 27 (14), 1873-1878 (1978)]. Male Hartlay guinea pig of about 300 g in body weight was used. Each guinea pig of the control group was administered intravenously with 0.5 ml (minimum dose to cause the shock) of hemolysin (commercial hemolysin, 5,000 U as assayed by the method of Ogata) and the time elapsed until death was observed. For the test group, each guinea pig was administered intravenously with the test compound 5 minutes before the administration of hemolysin and the time (second) elapsed until death was observed.

[9] = target: T4, C1s (Homo sapiens, UniProt P09871); assay: biochemical; conditions: ATEE hydrolysis; read-out: Anti-C1 activity, C1s ID50
T4 sequence (P09871 438-688 limits assumed): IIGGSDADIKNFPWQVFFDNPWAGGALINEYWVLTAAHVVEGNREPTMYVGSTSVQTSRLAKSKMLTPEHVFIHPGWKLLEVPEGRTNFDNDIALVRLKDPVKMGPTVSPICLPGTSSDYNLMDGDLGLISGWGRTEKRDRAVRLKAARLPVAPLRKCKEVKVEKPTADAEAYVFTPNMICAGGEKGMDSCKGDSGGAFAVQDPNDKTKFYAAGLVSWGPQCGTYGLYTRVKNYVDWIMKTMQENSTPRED
T4 sequence (P09871 16-437 partner limits assumed): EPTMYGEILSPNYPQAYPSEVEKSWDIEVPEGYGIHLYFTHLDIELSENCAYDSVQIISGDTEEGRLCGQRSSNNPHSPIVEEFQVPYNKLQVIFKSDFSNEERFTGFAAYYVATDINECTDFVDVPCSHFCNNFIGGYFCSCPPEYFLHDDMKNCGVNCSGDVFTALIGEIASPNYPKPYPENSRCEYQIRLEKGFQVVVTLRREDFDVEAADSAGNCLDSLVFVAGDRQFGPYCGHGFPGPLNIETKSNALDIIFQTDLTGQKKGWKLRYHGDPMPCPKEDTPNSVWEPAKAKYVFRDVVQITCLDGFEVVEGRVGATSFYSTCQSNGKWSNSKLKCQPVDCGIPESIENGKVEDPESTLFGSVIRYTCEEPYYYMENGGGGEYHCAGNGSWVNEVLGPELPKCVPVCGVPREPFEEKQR
Experimental: The anti-Cl esterase (Clr, Cls) activity was determined according to the method of Okamura et al. [K. Okamura, M. Muramatsu and S. Fujii, Biochem. Biophys. […] The figures in Table 2 have the following meanings:
Cls: Molar concentration of the test compound which inhibits 50% of the ability of Cls to hydrolyse ATEE (acetyltyrosin ethyl ester).

[10] = target: T5, C1r (Homo sapiens, UniProt P00736); assay: Anti-C1 esterase (C1r) activity (hydrolysis of AAME); assay type: biochemical; conditions: for IC50: AAME hydrolysis, read-out: Anti-C1 activity, C1r ID50
T5 sequence (P00736 464-705 limits assumed): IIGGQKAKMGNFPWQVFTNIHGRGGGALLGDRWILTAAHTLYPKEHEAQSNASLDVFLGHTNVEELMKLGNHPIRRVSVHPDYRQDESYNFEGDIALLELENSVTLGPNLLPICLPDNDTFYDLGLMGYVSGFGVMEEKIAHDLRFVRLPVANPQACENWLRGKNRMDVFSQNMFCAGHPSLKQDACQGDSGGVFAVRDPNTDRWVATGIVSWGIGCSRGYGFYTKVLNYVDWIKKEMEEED
T5 sequence (P00736 18-463 partner limits assumed): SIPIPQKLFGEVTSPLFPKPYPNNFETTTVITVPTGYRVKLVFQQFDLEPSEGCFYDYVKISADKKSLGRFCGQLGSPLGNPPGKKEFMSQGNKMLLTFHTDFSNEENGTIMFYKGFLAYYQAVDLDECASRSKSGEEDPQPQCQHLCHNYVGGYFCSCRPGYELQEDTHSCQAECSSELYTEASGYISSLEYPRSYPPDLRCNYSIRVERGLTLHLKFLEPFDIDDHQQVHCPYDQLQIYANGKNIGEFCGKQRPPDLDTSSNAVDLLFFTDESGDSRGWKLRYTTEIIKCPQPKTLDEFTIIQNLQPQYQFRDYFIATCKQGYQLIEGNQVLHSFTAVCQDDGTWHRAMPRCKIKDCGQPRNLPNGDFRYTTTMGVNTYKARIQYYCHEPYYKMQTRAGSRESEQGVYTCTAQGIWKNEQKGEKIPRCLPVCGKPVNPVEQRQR
Experimental: The anti-Cl esterase ([…]) activity was determined according to the method of Okamura et al. [K. Okamura, M. Muramatsu and S. Fujii, Biochem. Biophys.

[11] = tested on: complement mediated hemolysis; assay: Inhibition of complement mediated hemolysis; assay type: cell-based
Experimental: The principle of this method is based on the fact that hemolysis is caused by the activation of complement, when the latter is added to a complex (immune complex) of erythrocytes and the antibody thereof. The degree of hemolysis varies in proportion to the amount of complement added. Therefore, when a known amount of complement admixed with a C1 esterase inhibitor is used, the hemolysis must be suppressed in proportion to the inhibitory activity.

[12] = Toxicity, median lethal dose (LD50); conditions: in vivo
[13] = target: T4, C1s; assay: biochemical; conditions: at 1×10^-5 M; read-out: Anti-C1 activity, C1s percent inhibition
[14] = tested on: complement; conditions: Y. Takada et al., Immunology 1978; cited from earlier work
[15] = 1.0 mg/kg intravenous, control average 465 (No. 27), 428 (No. 22)

SMILES	IC50 [1] [µM]	IC50 [2] [µM]	IC50 [3] [µM]	IC50 [6] [µM]	Time elapsed until death, individual animal ([8]; 1.0 mg/kg intravenous)	Time elapsed until death, average [8, 15] [s]	IC50 [9] [µM]	IC50 [10] [µM]	Inhibition of complement mediated hemolysis (%) ([11]; 1 × 10^-4)	Inhibition of complement mediated hemolysis (%) ([11]; 1 × 10^-5)	Inhibition of complement mediated hemolysis (%) ([11]; 1 × 10^-6)	Inhibition of complement mediated hemolysis (%) ([11]; 1 × 10^-7)	inhibition at 10 µM [6] [%]	LD50 ([12]; ip) [mg/kg]	LD50 ([12]; po) [mg/kg]	other results
N=C(N)c1ccc2cc(O)ccc2c1 [6-amidino-2-naphthol, reference compound]	440	> 1000	> 1000	> 1000	–	–	–	–	–	–	–	–	–	–	–	Plasmin inhibition in words [4]: inhibits trypsin, plasmin and thrombin; Trypsin inhibition in words [5]: inhibits trypsin, plasmin and thrombin; Thrombin inhibition in words [7]: inhibits trypsin, plasmin and thrombin
N=C(N)c1ccc2cc(OC(=O)c3ccc(CN)cc3)ccc2c1 [Compound 22, 6-amidino-2-naphthyl 4-aminomethylbenzoate]	4	4	3	–	240 s and 630 s and 250 s and 570 s and 440 s and 675 s	468	0.2	0.3	100	99	90	48	26	200	2500	Time elapsed until death, individual animal ([8]; 3.0 mg/kg intravenous): 745 s and 1410 s and 600 s and 885 s and 455 s and 435 s; Time elapsed until death, average ([8]; 3.0 mg/kg intravenous, control average 428): 755 s
N=C(N)Nc1ccc(C(=O)Oc2ccc3cc(C(=N)N)ccc3c2)cc1 [Compound 27, 6-amidino-2-naphthyl 4-guanidinobenzoate]	–	–	5	3	740 sec. and 820 sec. and Survival and 670 sec. and 1325 sec.	> 889	0.05	0.1	100	100	97	44	–	200	2500	Time elapsed until death, individual animal ([8]; 0.5 mg/kg intravenous): 732 s and 740 s and 723 s and 724 s and 590 s and 410 s; Time elapsed until death, average ([8]; 0.5 mg/kg intravenous, control average 465): 653 s
N=C(N)c1ccc2cc(OC(=O)CCc3ccc(N)cc3)ccc2c1 [Compound 51, 6-amidino-2-naphthyl 4-aminophenylpropionate]	6	10	–	–	–	–	–	–	54	6	1	0	35	–	–	inhibition at 10 µM [13]: 21%; inhibition at 10 µM ([10]; at 1×10^-5 M, read-out: Anti-C1 activity, C1r percent inhibition): 18%
CC(=O)N[C@@H](CC(C)C)C(=O)N[C@@H](CC(C)C)C(=O)N[C@H](C=O)CCCNC(=N)N [Leupeptin, reference compound]	–	–	–	–	–	–	–	–	97	52	0	0	–	–	–	Anti-complement activity in words [14]: having an anti-complement activity
